# Measured values as given in patent publication EP0490193A1, “Complex of an actif enantiomer of ibuprofen with cyclodextrin” (priority 1990, dated 1992).
# How the values were obtained:
# [1] = Dissolution properties in water at 37° C (Tabelle I); assay type: physicochemical; details: Wasser
# [2] = In vitro diffusion study, concentration in the receptor cell, buffer pH 1,2, 37° C (Tabelle II); assay type: in vitro ADME; details: Pufferlösung pH = 1,2, 37° C
# Excerpt: Um die gute biologische Verfügbarkeit des S-(+)-Ibuprofens aus der komplexierten Form zu testen, wurden in vitro-Diffusionsversuche durchgeführt. Die Diffusion des S-(+)-Ibuprofens aus dem β-Cyclodextrin-Komplex war schneller, die S-(+)-Ibuprofen-Menge in der Rezeptorzelle betrug das 1,6fache bei pH = 1,2 nach 6 Stunden im Vergleich zum freien Arzneimittel (Tabelle II).
# [3] = synoviale Flüssigkeit, Patienten mit Arthritis; cited from earlier work
# [4] = Ratten; cited from earlier work
# [5] = nach Ibuprofengaben; cited from earlier work
Structure (SMILES),gelöstes Ibuprofen ([1]; Zeit 1 min),gelöstes Ibuprofen ([1]; Zeit 5 min),gelöstes Ibuprofen ([1]; Zeit 10 min),gelöstes Ibuprofen ([1]; Zeit 15 min),gelöstes Ibuprofen ([1]; Zeit 30 min),gelöstes Ibuprofen ([1]; Zeit 60 min),Konzentration von S-(+)-Ibuprofen in der Rezeptorzelle ([2]; Zeit 90 min),Konzentration von S-(+)-Ibuprofen in der Rezeptorzelle ([2]; Zeit 120 min),Konzentration von S-(+)-Ibuprofen in der Rezeptorzelle ([2]; Zeit 180 min),Konzentration von S-(+)-Ibuprofen in der Rezeptorzelle ([2]; Zeit 240 min),Konzentration von S-(+)-Ibuprofen in der Rezeptorzelle ([2]; Zeit 360 min),Konzentrationsverhältnis S zu R [3],Absorptionsgrad [4],aus dem Urin zurückgewonnen [5]
"CC(C)Cc1ccc([C@H](C)C(=O)O)cc1 [S-(+)-Ibuprofen, S-(+)-2-(-4-Isobutylphenyl)propionsäure]","0,04 mg/ml","0,10 mg/ml","0,12 mg/ml","0,13 mg/ml","0,12 mg/ml","0,12 mg/ml","0,022 mg/ml","0,027 mg/ml","0,038 mg/ml","0,047 mg/ml","0,061 mg/ml","2,1",–,–
CC(C)Cc1ccc(C(C)C(=O)O)cc1 (racemic) [Ibuprofen],–,–,–,–,–,–,–,–,–,–,–,–,gleich,"5,0%"
